# Assay results taken from PubChem BioAssay (NCI).
#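 Step 1: Grow cells in 96-well plates. Step 2: Expose to compound for 48 hours at 5 concentrations. Step 3: Interpolate endpoints linearly; if unreached, use highest concentration. GI50: concentration for 50% inhibition of growth. TGI marks complete inhibition of growth.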
# Assays:
# Test in all cases: NCI tumour cell line growth inhibition, 48 h
# HT29 colon = test system: HT29 colon
# NCI-H460 lung = test system: NCI-H460 lung
# SNB-75 CNS = test system: SNB-75 CNS
# SK-OV-3 ovarian = test system: SK-OV-3 ovarian
# HOP-62 NSCLC = test system: HOP-62 NSCLC
# M14 melanoma = test system: M14 melanoma
# CCRF-CEM leukemia = test system: CCRF-CEM leukemia
# NCI/ADR-RES ovarian = test system: NCI/ADR-RES ovarian
# HCT-15 colon = test system: HCT-15 colon
# UACC-257 melanoma = test system: UACC-257 melanoma
# OVCAR-3 ovarian = test system: OVCAR-3 ovarian
# ACHN renal = test system: ACHN renal
# K-562 leukemia = test system: K-562 leukemia
# A498 renal = test system: A498 renal
# MOLT-4 leukemia = test system: MOLT-4 leukemia
# SF-295 CNS = test system: SF-295 CNS
# CAKI-1 renal = test system: CAKI-1 renal
# T-47D breast = test system: T-47D breast
# NCI-H226 lung = test system: NCI-H226 lung
# NCI-H522 lung = test system: NCI-H522 lung
# A549 NSCLC = test system: A549 NSCLC
# UO-31 renal = test system: UO-31 renal
# HCT-116 colon = test system: HCT-116 colon
# IGROV1 ovarian = test system: IGROV1 ovarian
# SR leukemia = test system: SR leukemia
# SN12C renal = test system: SN12C renal
# SK-MEL-5 melanoma = test system: SK-MEL-5 melanoma
# HL-60(TB) leukemia = test system: HL-60(TB) leukemia
# SW-620 colon = test system: SW-620 colon
# MCF7 breast = test system: MCF7 breast
# COLO 205 colon = test system: COLO 205 colon
# LOX IMVI melanoma = test system: LOX IMVI melanoma
# SK-MEL-28 melanoma = test system: SK-MEL-28 melanoma
# SNB-19 CNS = test system: SNB-19 CNS
# NCI-H23 lung = test system: NCI-H23 lung
# OVCAR-4 ovarian = test system: OVCAR-4 ovarian
# MDA-MB-435 = test system: MDA-MB-435
# OVCAR-5 ovarian = test system: OVCAR-5 ovarian
# HS 578T breast = test system: HS 578T breast
# PC-3 prostate = test system: PC-3 prostate
# 786-0 renal = test system: 786-0 renal
# SF-539 CNS = test system: SF-539 CNS
# SF-268 CNS = test system: SF-268 CNS
# BT-549 breast = test system: BT-549 breast
# OVCAR-8 ovarian = test system: OVCAR-8 ovarian
# DU-145 prostate = test system: DU-145 prostate
# KM12 colon = test system: KM12 colon
# RPMI-8226 leukemia = test system: RPMI-8226 leukemia
# SK-MEL-2 melanoma = test system: SK-MEL-2 melanoma
# U251 CNS = test system: U251 CNS
# MDA-MB-231 breast = test system: MDA-MB-231 breast
# TK-10 renal = test system: TK-10 renal
# HCC-2998 colon = test system: HCC-2998 colon
# EKVX NSCLC = test system: EKVX NSCLC
# HOP-92 NSCLC = test system: HOP-92 NSCLC
# UACC-62 melanoma = test system: UACC-62 melanoma
# RXF 393 renal = test system: RXF 393 renal
structure (smiles),measurement,setting,value
O=C(NNC(=S)Nc1ccccc1)c1ccccn1,GI50,HT29 colon,4.17 µM
same,TGI,HT29 colon,> 100 µM
same,GI50,NCI-H460 lung,1.06 µM
same,TGI,NCI-H460 lung,> 100 µM
same,GI50,SNB-75 CNS,5.97 µM
same,TGI,SNB-75 CNS,> 100 µM
same,GI50,SK-OV-3 ovarian,7.33 µM
same,TGI,SK-OV-3 ovarian,> 100 µM
same,GI50,HOP-62 NSCLC,5.52 µM
same,TGI,HOP-62 NSCLC,> 100 µM
same,GI50,M14 melanoma,2.1 µM
same,TGI,M14 melanoma,12.3 µM
same,GI50,CCRF-CEM leukemia,2.18 µM
same,TGI,CCRF-CEM leukemia,25.3 µM
same,GI50,NCI/ADR-RES ovarian,2.84 µM
same,TGI,NCI/ADR-RES ovarian,> 100 µM
same,GI50,HCT-15 colon,1.13 µM
same,TGI,HCT-15 colon,> 100 µM
same,GI50,UACC-257 melanoma,2.53 µM
same,TGI,UACC-257 melanoma,21.2 µM
same,GI50,OVCAR-3 ovarian,6.83 µM
same,TGI,OVCAR-3 ovarian,> 100 µM
same,GI50,ACHN renal,1.22 µM
same,TGI,ACHN renal,> 100 µM
same,GI50,K-562 leukemia,3.95 µM
same,TGI,K-562 leukemia,> 100 µM
same,GI50,A498 renal,4.55 µM
same,TGI,A498 renal,> 100 µM
same,GI50,MOLT-4 leukemia,2.84 µM
same,TGI,MOLT-4 leukemia,> 100 µM
same,GI50,SF-295 CNS,1.97 µM
same,TGI,SF-295 CNS,> 100 µM
same,GI50,CAKI-1 renal,1.37 µM
same,TGI,CAKI-1 renal,> 100 µM
same,GI50,T-47D breast,6.55 µM
same,TGI,T-47D breast,> 100 µM
same,GI50,NCI-H226 lung,3.3 µM
same,TGI,NCI-H226 lung,> 100 µM
same,GI50,NCI-H522 lung,5.99 µM
same,TGI,NCI-H522 lung,> 100 µM
same,GI50,A549 NSCLC,1.56 µM
same,TGI,A549 NSCLC,47.7 µM
same,GI50,UO-31 renal,0.95 µM
same,TGI,UO-31 renal,16.9 µM
same,GI50,HCT-116 colon,3.02 µM
same,TGI,HCT-116 colon,> 100 µM
same,GI50,IGROV1 ovarian,3 µM
same,TGI,IGROV1 ovarian,> 100 µM
same,GI50,SR leukemia,1.63 µM
same,TGI,SR leukemia,> 100 µM
same,GI50,SN12C renal,2.99 µM
same,TGI,SN12C renal,> 100 µM
same,GI50,SK-MEL-5 melanoma,2.11 µM
same,TGI,SK-MEL-5 melanoma,> 100 µM
same,GI50,HL-60(TB) leukemia,2.58 µM
same,TGI,HL-60(TB) leukemia,7.85 µM
same,GI50,SW-620 colon,4.54 µM
same,TGI,SW-620 colon,> 100 µM
same,GI50,MCF7 breast,3.14 µM
same,TGI,MCF7 breast,> 100 µM
same,GI50,COLO 205 colon,4.05 µM
same,TGI,COLO 205 colon,> 100 µM
same,GI50,LOX IMVI melanoma,2.31 µM
same,TGI,LOX IMVI melanoma,> 100 µM
same,GI50,SK-MEL-28 melanoma,2.8 µM
same,TGI,SK-MEL-28 melanoma,> 100 µM
same,GI50,SNB-19 CNS,2.95 µM
same,TGI,SNB-19 CNS,> 100 µM
same,GI50,NCI-H23 lung,6.95 µM
same,TGI,NCI-H23 lung,> 100 µM
same,GI50,OVCAR-4 ovarian,1.46 µM
same,TGI,OVCAR-4 ovarian,> 100 µM
same,GI50,MDA-MB-435,4.29 µM
same,TGI,MDA-MB-435,> 100 µM
same,GI50,OVCAR-5 ovarian,> 100 µM
same,TGI,OVCAR-5 ovarian,> 100 µM
same,GI50,HS 578T breast,23.7 µM
same,TGI,HS 578T breast,> 100 µM
same,GI50,PC-3 prostate,2.87 µM
same,TGI,PC-3 prostate,> 100 µM
same,GI50,786-0 renal,2.81 µM
same,TGI,786-0 renal,> 100 µM
same,GI50,SF-539 CNS,2.43 µM
same,TGI,SF-539 CNS,20.8 µM
same,GI50,SF-268 CNS,2.66 µM
same,TGI,SF-268 CNS,> 100 µM
same,GI50,BT-549 breast,7.41 µM
same,TGI,BT-549 breast,> 100 µM
same,GI50,OVCAR-8 ovarian,2.69 µM
same,TGI,OVCAR-8 ovarian,> 100 µM
same,GI50,DU-145 prostate,3.8 µM
same,TGI,DU-145 prostate,> 100 µM
same,GI50,KM12 colon,3.9 µM
same,TGI,KM12 colon,> 100 µM
same,GI50,RPMI-8226 leukemia,2.69 µM
same,TGI,RPMI-8226 leukemia,38.4 µM
same,GI50,SK-MEL-2 melanoma,9.74 µM
same,TGI,SK-MEL-2 melanoma,> 100 µM
same,GI50,U251 CNS,1.49 µM
same,TGI,U251 CNS,> 100 µM
same,GI50,MDA-MB-231 breast,3.85 µM
same,TGI,MDA-MB-231 breast,> 100 µM
OC(c1ccccc1)C(F)(F)c1nc2ccccc2o1 (centres undefined),TGI,HT29 colon,> 100 µM
same,TGI,NCI-H460 lung,> 100 µM
same,TGI,SNB-75 CNS,> 100 µM
same,TGI,TK-10 renal,> 100 µM
same,TGI,SK-OV-3 ovarian,> 100 µM
same,TGI,HOP-62 NSCLC,> 100 µM
same,TGI,M14 melanoma,> 100 µM
same,TGI,CCRF-CEM leukemia,> 100 µM
same,TGI,HCC-2998 colon,> 100 µM
same,TGI,NCI/ADR-RES ovarian,> 100 µM
same,TGI,HCT-15 colon,> 100 µM
same,TGI,UACC-257 melanoma,> 100 µM
same,TGI,ACHN renal,> 100 µM
same,TGI,K-562 leukemia,75.3 µM
same,TGI,A498 renal,> 100 µM
same,TGI,MOLT-4 leukemia,> 100 µM
same,TGI,SF-295 CNS,> 100 µM
same,TGI,CAKI-1 renal,> 100 µM
same,TGI,T-47D breast,> 100 µM
same,TGI,NCI-H226 lung,> 100 µM
same,TGI,UO-31 renal,> 100 µM
same,TGI,HCT-116 colon,> 100 µM
same,TGI,IGROV1 ovarian,> 100 µM
same,TGI,SR leukemia,> 100 µM
same,TGI,EKVX NSCLC,> 100 µM
same,TGI,SK-MEL-5 melanoma,> 100 µM
same,TGI,HL-60(TB) leukemia,> 100 µM
same,TGI,HOP-92 NSCLC,> 100 µM
same,TGI,SW-620 colon,> 100 µM
same,TGI,MCF7 breast,> 100 µM
same,TGI,COLO 205 colon,> 100 µM
same,TGI,LOX IMVI melanoma,> 100 µM
same,TGI,SK-MEL-28 melanoma,> 100 µM
same,TGI,SNB-19 CNS,> 100 µM
same,TGI,NCI-H23 lung,> 100 µM
same,TGI,OVCAR-4 ovarian,> 100 µM
same,TGI,MDA-MB-435,> 100 µM
same,TGI,HS 578T breast,> 100 µM
same,TGI,PC-3 prostate,> 100 µM
same,TGI,786-0 renal,> 100 µM
same,TGI,SF-539 CNS,> 100 µM
same,TGI,SF-268 CNS,> 100 µM
same,TGI,UACC-62 melanoma,> 100 µM
same,TGI,RXF 393 renal,> 100 µM
same,TGI,BT-549 breast,> 100 µM
same,TGI,OVCAR-8 ovarian,> 100 µM
same,TGI,DU-145 prostate,> 100 µM
same,TGI,KM12 colon,> 100 µM
same,TGI,RPMI-8226 leukemia,> 100 µM
same,TGI,SK-MEL-2 melanoma,> 100 µM
same,TGI,U251 CNS,> 100 µM
same,TGI,MDA-MB-231 breast,> 100 µM
